Values quoted from earlier work in patent publication US7985733B1, “Buffer-based method for preparing bivalirudin drug product” (The Medicines Company, priority 2010, dated 2011).

Legend:
[1] = 25° C.
[2] = pH at which the molecule carries no net charge
[3] = statement of CN 101244043

## O=S(=O)(O)CCN1CCN(CCS(=O)(=O)O)CC1 [Piperazine-1,4-bis(2-ethanesulfonic acid)]
[1]
  pKa: 6.8

## Maleate
[1]
  pKa (pK1): 2.0
  pKa (pK2): 6.2

## CC[C@H](C)[C@H](NC(=O)[C@H](CCC(=O)O)NC(=O)[C@H](CCC(=O)O)NC(=O)[C@H](Cc1ccccc1)NC(=O)[C@H](CC(=O)O)NC(=O)CNC(=O)[C@H](CC(N)=O)NC(=O)CNC(=O)CNC(=O)CNC(=O)CNC(=O)[C@@H]1CCCN1C(=O)[C@H](CCCNC(=N)N)NC(=O)[C@@H]1CCCN1C(=O)[C@H](N)Cc1ccccc1)C(=O)N1CCC[C@H]1C(=O)N[C@@H](CCC(=O)O)C(=O)N[C@@H](CCC(=O)O)C(=O)N[C@@H](Cc1ccc(O)cc1)C(=O)N[C@@H](CC(C)C)C(=O)O [bivalirudin, D-Phenylalanyl-L-Prolyl-L-Arginyl-L-Prolyl-Glycyl-Glycyl-Glycyl-Glycyl-L-Asparagyl-Glycyl-L-Aspartyl-L-Phenylalanyl-L-Glutamyl-L-Glutamyl-L-Isoleucyl-L-Prolyl-L-Glutamyl-L-Glutamyl-L-Tyrosyl-L-Leucine]
[2]
  isoelectric point (pI): about 3.6
[3]
  solubility in water: easily soluble in water
